This note sets out measurements from ChEMBL document CHEMBL3112514, “Insights into antioxidant activity of 1-adamantylthiopyridine analogs using multiple linear regression” (Eur J Med Chem, 2014).

The subject of assay [1] is Radical scavenging activity. As to the kind of experiment: Antioxidant activity assessed as DPPH radical scavenging activity. Further details: concentration or dose not given beside the values. The assay is classed as functional.
Assay [2] in a line: Antioxidant activity assessed as inhibition of photoreduction of nitro blue tetrazolium after 7 mins by SOD activity assay. It is filed as functional. On the set-up: concentration or dose not given beside the values.

On to `CC(=O)N(C(C)=O)c1cccnc1SC12CC3CC(CC(C3)C1)C2`, for which the Activity in assay [1] was found to be 17.7%.

Turning to `NC(=O)c1cccnc1SC12CC3CC(CC(C3)C1)C2`, in assay [2], the inhibition came out at 15.4%. The Activity in assay [1] came out at 0.57%.

Turning to `O=C(O)c1cccnc1SC12CC3CC(CC(C3)C1)C2`, the inhibition in assay [2] was 15.4%. Also, the Activity in assay [1] was determined as 33.2%.

For the molecule `CC(=O)Oc1cccnc1SC12CC3CC(CC(C3)C1)C2`, in assay [2], the inhibition was 16.8%. The Activity in assay [1] was found to be 7.03%.

For `CCOc1cccnc1SC12CC3CC(CC(C3)C1)C2`, in assay [2], the inhibition is 31.8%. Moreover, in assay [1], the Activity was 14.2%.

As to `Brc1cccnc1SC12CC3CC(CC(C3)C1)C2`, the inhibition in assay [2] stood at 17.2%. The Activity in assay [1] worked out at 21.1%.

On to `N#Cc1cccnc1SC12CC3CC(CC(C3)C1)C2`, for which, in assay [2], the inhibition worked out at 17.3%. For the same molecule, in assay [1], the Activity is 0.3%.

On to `Brc1cncc(SC23CC4CC(CC(C4)C2)C3)c1`, for which the inhibition in assay [2] was 53.3%. In addition, the Activity in assay [1] was determined as 17.1%.

Take `Oc1ccc(SC23CC4CC(CC(C4)C2)C3)nc1`: the inhibition in assay [2] was found to be 45.5%. Besides, the Activity in assay [1] came to 0.3%.
